The record followed here is US10183080B2, “Use of single dendritic wedge cell penetrating peptides to facilitate cellular delivery of nanoparticles and nanoparticles carrying cargos” (The Government of the United States of America, as …, priority 2016, dated 2019).

Where no end group is shown, it is not given here.

Series [1] can be described thus: Dynamic light scattering of QD-peptide conjugates. Format: physicochemical. As to conditions: DLS; 5 peptides/QD; 50 nM QD, 0.1×PBS pH 7.4, 25° C. The source says: Dynamic Light Scattering (DLS) analysis was next undertaken to measure the QD-peptide conjugates hydrodynamic diameter (HD) and diffusion coefficients. Based on the values estimated above, assembly ratios of 5 peptides/QD were utilized during these measurements. The QD-(Arg9)1 conjugate's HD increases from the QD only value of 24.3±1 nm to ˜26.7±1.3 nm. HD values for the QD-(Arg9)2-8 conjugates are essentially the same within experimental error with an average value of 30.5±0.5 nm while the QD-(Arg9)16 increases to ˜33 nm. The diffusion coefficients follow the same trend but in an inverse manner from ˜17 to 13 μm^2/s. […] They support the notion that the peptides are attached via the His6 region to the QD surface and that the polyproline regions span through the PEG layer displaying the poly(Arg) motifs on the QD's surface through the surrounding PEG layer as intended in the synthetic design.
Dynamic light scattering (DLS) measurements were carried out using a ZetaSizer NanoSeries equipped with a HeNe laser source (λ=633 nm, Malvern Instruments Ltd, Worcestershire, UK) and analyzed using Dispersion Technology Software (DTS, Malvern Instruments Ltd). 50 nM concentration solutions of QDs were loaded into disposable cells, and data were collected at 25° C. All samples were prepared in 0.1×PBS buffer pH 7.4. For each sample, the autocorrelation function was the average of five runs of 10 s each and then repeated from three to six times. CONTIN analysis was used to determine the number versus hydrodynamic size profiles for the dispersions studied.

In series [2] the test system is COS-1 cells. As to the kind of experiment: Dendritic peptide-mediated delivery of cargo-decorated QDs. Format: cell-based, African green monkey. The source says: Lastly, as proof of concept, tests were made of the ability of the dendritic peptides to facilitate QD delivery, when the QDs are decorated with additional “cargo.” For this, following initial attachment of the (Arg9)n peptides to the QDs, they were further assembled with one of three prototypical cargos, a dye-labeled peptide, a drug-labeled peptide and a fluorescent protein. FIG. 8B presents a series of representative images that highlight some of the results achieved using 520 nm emitting QDs functionalized with a zwitterionic compact ligand 4; this ligand was used as it still allows larger proteins access to the QD surface for (His)n-binding unlike PEG which can sterically preclude them. […] Analogous to the data shown above, peptides with higher (Arg9)n dendrimeric branching, use of higher ratios of peptide/QD, and longer delivery times each served to facilitate higher levels of QD-cargo conjugate uptake into the cells (data not shown).
CdSe/ZnS core/shell QDs with emission maxima centered at 550 nm were synthesized as described. These were rendered hydrophilic through cap exchange of the native hydrophobic ligands with polyethylene glycol-(average MW 750 Da) appended dihydrolipoic acid ligands terminating in methoxy groups (DHLA-PEG750-OMe, see FIG. 1B) as described. For cargo delivery experiments, 520 nm emitting QDs functionalized with a zwitterionic compact ligand 4 (CL4) were utilized.
Aliquots of African green monkey kidney fibroblast-like COS-1 cells (CRL-1650) from American Type Culture Collection (ATCC, Manassas, Va., USA) were cultured in Dulbecco's Modified Eagle's Medium (DMEM, ATCC) supplemented with 10% (v/v) heat-inactivated fetal bovine serum (ATCC) and 1% antibiotic/antimycotic at 37° C. in a humidified atmosphere containing 95% air/5% CO2. Aliquots were allowed to adhere to the culture flask and reach 80% confluency, usually within 3 to 4 days. The monolayer was harvested by washing once with PBS, once with calcium/magnesium-free PBS, and incubating the monolayer with trypsin until detachment from the culture flask (usually within 5 min). Cells were seeded at 1-2×10^4 cells/well in Lab-Tek 8-well chambered No. 1 borosilicate cover glass system (Nalge Nunc, Rochester N.Y., USA) that had been previously coated for at least 4 h with fibronectin (5 μg/mL, Life Technologies). Cells were allowed to adhere to the bottom of the wells by further culture overnight at 37° C. in 95% air/5% CO2 air. Following overnight culture, media was removed and washed with 100 μL of 25 mM HEPES supplemented with 1 mM sodium pyruvate. […]
For cargo delivery experiments, mCherry fluorescent protein was prepared as described in the literature. […] Cytotoxicity assays were determined using the Vybrant® MTT Cell Proliferation Assay Kit. […]

Series [3] concerns COS-1 cells. The experiment in a line: Cellular uptake of QD-dendritic peptide bioconjugates (fluorescence/confocal imaging). The class given is cell-based, African green monkey. To be noted: 4 h incubation, 100 nM QD, 5 peptides/QD. The method, then: COS-1 cells were incubated for 4 h with 150 μL of a 100 nM solution of QDs assembled with the (Arg9)1-16 peptide series at ratio of 5/QD. This ratio was chosen since it represents a value where stochastic assembly events are minimized and correlates with ratios used in the DLS and SPR analysis. Cells were then incubated with the Transferrin Alexa647 endosomal marker for another hour prior to washing and processing which included counterstaining with the DAPI nuclear dye as described in the Methods section. FIGS. 4A through 4G present representative micrographs collected from these samples as projections of confocal stacks and side profiles of the cells. […] The bright yellow PL also observed in these images reflects colocalization of the green QDs with the red Alexa647 marker and confirms that the QDs are located in the endolysosomal system with a primary perinuclear localization as expected following endosomal vesicular uptake.
Kinetics of Poly(Arg)1-16-mediated QD uptake into cells were next evaluated. For this, 150 μL of 100 nM QDs assembled with a ratio of 5 peptides/QD were exposed to COS-1 cells for fixed time periods of 0.5, 1, 4, 8 and 24 h. […] Some delivery trends are visible from a comparison across these images. […] The amount and brightness of QD labeling in the endosomes directly correlates with the increase in the dendritic poly(Arg) display on the QD surface. Additionally, as the cellular exposure time increases, the amount of QD uptake increases proportionally as well. The measured PL intensity per cell from these representative images is plotted in FIG. 5B highlighting the general trends. Although some variability was noted (most likely due to the inherent noisy background found in such gross cellular studies), replicate samples reproduced the same generalized trends of increased poly(Arg)n dendritic branching and increased cellular exposure time leading to increased bioconjugate uptake and PL intensity. […]

Regarding “[(RRRRRRRRRFG)-x-hex-P9G]2-K′WGH6 (peptide RRRRRRRRRFGPPPPPPPPPG; chain KWGHHHHHH) [(Arg9)2, generation 1 dendritic wedge peptide displaying two Arg9 motifs]”, the “HD (hydrodynamic diameter)” value in series [1] amounted to 30 ± 1.4 nm.
With [RRRRRRRRRFG]4-x-K′K′WP9G2H6 [(Arg9)4], the “HD (hydrodynamic diameter)” value in series [1] is 30.7 ± 2.0 nm.
Take “[RRRRRRRRRFG]8-x-K′K′K′WP9G2H6 [(Arg9)8]”: in series [2] (low valencies, short delivery times (data not shown)), the “comparative performance in cargo delivery experiments” value is reported as “worked best”. Further, the “delivery of QDs decorated with ~25 doxorubicin labeled peptides” value in series [2] (ratio 0.5 peptide/QD, 1 h exposure, cargo MW ~50 kDa, 520 nm CL4 QDs) is given as “allowed delivery”. Also, in series [2] (ratio 1 peptide/QD, 1 h exposure, cargo MW ~850 kDa, 520 nm CL4 QDs), the “delivery of ~30 mCherry per QD” value is on record as “allowed delivery”. Moreover, the “delivery of QDs decorated with ~30 Cy5 labeled peptides” value in series [2] (ratio 1 peptide/QD, 2 h exposure, cargo MW ~100 kDa/QD, 520 nm CL4 QDs) is reported as “facilitated delivery”. The “QD uptake (QD PL in confocal micrographs)” value (from here on “QD uptake”) in series [3] is reported as “most intense QD PL”. For the same substance, in series [1], the “HD (hydrodynamic diameter)” value came out at 30.9 ± 1.4 nm.
Consider “[RRRRRRRRRFG]16-x-K′K′K′K′WP9G2H6 [(Arg9)16]”, for which the “QD uptake” value in series [3] is “most intense QD PL”. In series [1], the “HD (hydrodynamic diameter)” value is 32.7 ± 4.9 nm.
For the substance “[RRRRRRRRRFG]-x-hex-hex-WP9G2H6 (RRRRRRRRRFGWPPPPPPPPPGGHHHHHH; not fully specified (residue 11); also: oxime bond (x) between G11 and hexamine spacers) [(Arg9)1, functions as control]”, in series [3], the “QD uptake” value is on record as “no appreciable QD uptake”. Also, the “HD (hydrodynamic diameter)” value in series [1] stood at 26.7 ± 1.3 nm.
